Patent US8481711B2, “Neurite outgrowth agent” (Hidenori Kamanishi, priority 2010, dated 2013)

Assays:
Type in all cases: cell-based
NB-1 cells = experiment: Neurite outgrowth in human neuroblastoma-derived NB-1 cells (phase-contrast microscopy); details: 10 μg/mL; for morphological alteration of the cells (neurite outgrowth): NB-1 cells 10^3 cells/mL, observed on the 10th day (FIG. 15)
Procedure: Using human neuroblastoma cell-derived cells as model cells for neurite outgrowth, the action of the NAD analogue of the present invention to induce the outgrowth of neurites was examined. Human-derived neuroblastoma cells (NB-1 cells) (obtained from the Health Science Research Resources Bank) were adjusted to a concentration of 10^3 cells/mL, and the cells were then cultured at 37° C. in a 10% fetal bovine serum-added Eagle's minimal essential medium (EME) culture solution in the presence of 5% CO2.
The above-described NB-1 cells were cultured for 3 hours, and the medium was then exchanged with a fresh one of the same type as described above. Then, 10 μg/mL of the NAD analogue of the present invention was added thereto, and the culture was further continued. Thereafter, the morphological alteration of the cells was observed under a phase-contrast microscope. During the culture, the culture solution was exchanged with a fresh one every 4 or 5 days. […] However, when compared with the case of adding the NAD analogue of the present invention to the cells, the length of such a neurite was apparently short. Moreover, the same experiment as described above was carried out using commercially available β-NAD.
The number of human neuroblastoma-derived cells (NB-cells), which were to be used as model cells for studying neurite outgrowth effect, was adjusted to 10^6 cells/mL. Thus prepared NB-1 cells were cultured in an Eagle's MEM medium, to which calf serum had been added to a final concentration of 10% and to which 10 μg/mL of the NAD analogue of the present invention had also been added. After 7 days passed, the morphological alteration of the cells was observed under a phase-contrast microscope at a magnification of 200 times.

Neuro-2a cells = experiment: Neurite outgrowth in mouse neuroblastoma Neuro-2a cells (phase-contrast microscopy); details: 10 μg/mL, 48 hours culture, vs control without compound
Procedure: Using mouse-derived neuroblastoma cells that are model cells used to examine neurite outgrowth effect, the inductive action of the NAD analogue of the present invention on the outgrowth of neurites was examined. Mouse-derived neuroblastoma cells (Neuro-2a cells) (obtained from the Health Science Research Resources Bank) were adjusted to a concentration of 10^6 cells/mL, and the cells were then cultured at 37° C. in a 10% fetal bovine serum-added Eagle's minimal essential (EME) medium culture solution in the presence of 5% CO2.
The above-described Neuro-2a cells were cultured for 3 hours, and the medium was then exchanged with a fresh one of the same type as described above. Then, 10 μg/mL of the NAD analogue of the present invention was added thereto, and the culture was further continued for 48 hours. Thereafter, the morphological alteration of the cell was observed under a phase-contrast microscope. […] However, when compared with the case of adding the NAD analogue of the present invention to the cells, the length of such a neurite was apparently short. Moreover, the same experiment as described above was carried out using commercially available β-NAD.

[1] = test system: fetal rat midbrain dopaminergic nerve cells; experiment: Neurite outgrowth in fetal rat midbrain dopaminergic nerve cells (anti-tyrosine hydroxylase immunostaining, Neurolucida); details: for length of neurites elongated from the cell bodies (concentration dependence): 0.01, 0.1, 1.0 and 10 μg/mL, vs control (FIG. 6)
Procedure: Fetuses were removed from a Sprague-Dawley (SD) rat that was 15 days pregnant, and a ventral portion of midbrain was then cut out under a stereoscopic microscope. The obtained portion was chopped with a surgical knife, and was then treated at 37° C. in a 0.25% trypsin-containing PBS for 20 minutes, so that the cells were dispersed. Thereafter, the resulting cells were treated with PBS that contained 50 μg/mL deoxyribonuclease (DNase I) and 50 μg/mL trypsin inhibitor at 37° C. for 5 minutes, so as to obtain fetal rat midbrain dopaminergic nerve cells. The thus obtained fetal rat midbrain dopaminergic nerve cells were cultured at 37° C. in a 10% bovine serum-added Dulbecco's modified Eagle's medium (DMEM) culture solution in the presence of 5% CO2.
The above-described fetal rat midbrain dopaminergic nerve cells were cultured for 2 days, and the culture solution was then exchanged with a fresh one. The NAD analogue of the present invention was added to the cells in various concentrations of 0 (control), 0.01, 0.1, 1.0 and 10 μg/mL, and the obtained mixture was further cultured for 3 days. On the 5th day of the culture, the dopaminergic nerve cells were stained with an anti-tyrosine hydroxylase antibody (manufactured by Pel-Freez) and a Fluorescein (FITC)-labeled secondary antibody (manufactured by Jackson ImmunoResearch Laboratories, Inc.) according to an immunostaining method. Then, the length and number of neurites elongated from the cell bodies of the stained cells were then measured using Neurolucida (manufactured by Micro Bright Field). […] Moreover, the same experiment as described above was carried out using commercially available β-NAD.
The lengths of neurites elongated from the cells were measured, and a comparison was made on the measurement results. When 10 μg/mL of the NAD analogue of the present invention was added to the cells, the length of the obtained neurite became approximately 150% if the length of a neurite in the control was defined as 100%. […] It is noted that 45 control cells and 38 test cells were subjected to the measurement, and the results were shown as average values.
FIG. 8 is a graph showing a quantitative change in the effect of the NAD analogue of the present invention to allow neurites to elongate from fetal rat brain dopaminergic cells. […] Moreover, the same experiment as described above was carried out using commercially available β-NAD.

HL-60 cells [2] = experiment: Apoptosis induction in human myeloid leukemia cells (nuclear staining, DNA electrophoresis)
Procedure: The number of human myeloid leukemia cells (HL-60 cells) was adjusted to 1.0×10^4 cells/mL. The thus prepared HL-60 cells were cultured in an RPMI medium, to which calf serum had been added to a final concentration of 10% and to which the NAD analogue of the present invention had also been added in a concentration of 10 μg/mL or 20 μg/mL. Four days later, the cells were subjected to nuclear staining, and they were then observed under a fluorescence microscope. Furthermore, DNA was extracted from the cells according to an ordinary method and was then electrophoresed.

HT1080 cells = experiment: Growth suppression of human fibrosarcoma cells (cell count); details: tested 0, 2.0, 4.0, 8.0 μg/mL, 7 days, t-test p<0.05 (FIG. 20)
Procedure: (§1) The number of human fibrosarcoma cells (HT1080 cells) was adjusted to 1.0×10^4 cells/mL. Thus prepared HT1080 cells were cultured in an Eagle's MEM medium, to which calf serum had been added to a final concentration of 10% and to which the NAD analogue of the present invention had also been added in various concentrations of 0, 2.0, 4.0, and 8.0 μg/mL. After 7 days passed, the number of cells was counted.
(§2) Analysis was carried out by a t-test. It was determined that p<0.05 indicated a significant difference.

HL-60 cells [3] = experiment: Growth suppression of human myeloid leukemia cells (cell count); details: tested 0, 2.0, 4.0, 8.0 μg/mL, 5 days, t-test p<0.05 (FIG. 17)
Procedure: as §1, with “myeloid leukemia” for “fibrosarcoma”, “(HL-60” for “(HT1080”, “The thus” for “Thus”, “HL-60” for “HT1080”, “5” for “7”
as §2

UF-1 cells = experiment: Growth suppression of retinoic acid-resistant leukemia cells (cell count); details: tested 0, 2.0, 4.0, 8.0 μg/mL, 28 days, t-test p<0.05 (FIG. 19)
Procedure: as §1, with “retinoic acid-resistant leukemia” for “human fibrosarcoma”, “(UF-1” for “(HT1080”, “The thus” for “Thus”, “UF-1” for “HT1080”, “RPMI” for “Eagle's MEM”, “28” for “7”
Analysis was carried out by a t-test. It was determined that p<0.05 indicated a significant difference. […] A differentiation induction therapy using retinoic acid has conventionally been carried out for the treatment of myeloid leukemia cells. It has been known that the leukemia cells eventually become resistant to retinoic acid, and thus the effect of retinoic acid becomes deactivated. However, from the results of the test using the NAD analogue of the present invention, it was confirmed that the NAD analogue of the present invention has an action to suppress the growth of even leukemia cells, which have acquired resistance to retinoic acid. In general, cells are not cultured for such a long period of time. The above-mentioned results were epoch-making in the sense that they were found after the culture for 28 days.

HT29 cells = experiment: Growth suppression of human colon-adenocarcinoma cells (cell count); details: tested 0, 2.0, 4.0, 8.0 μg/mL, 7 days, t-test p<0.05 (FIG. 21)
Procedure: as §1, with “colon-adenocarcinoma” for “fibrosarcoma”, “(HT29” for “(HT1080”, “HT29” for “HT1080”
as §2

NC(=O)c1ccc[n+]([C@@H]2O[C@H](COP(=O)([O-])OP(=O)(O)OC[C@H]3O[C@@H](n4cnc5c(N)ncnc54)[C@H](O)[C@@H]3O)[C@@H](O)[C@H]2O)c1 [β-NAD, reference compound]
morphological alteration of the cells (neurite outgrowth) (NB-1 cells): no change in neurites was found
morphological alteration of the cell (neurite outgrowth) (Neuro-2a cells): no change in neurites was found
length of neurites elongated from the cell bodies (concentration dependence) ([1]; 3 days): the outgrowth of neurites was not observed
outgrowth of neurites (same experiment as FIG. 8) ([1]; fetal rat brain dopaminergic cells): the outgrowth of neurites was not observed

3-(aminocarbonyl)-1-[5-O-[[1-(6-amino-9H-purin-9-yl)-1-deoxy-β-D-ribofuranose-5-O-yl]phosphonyloxy(oxylato)phosphinyl]-β-L-ribofuranosyl]pyridinium [NAD analogue of the present invention]
shape of the nucleus (nuclear staining, fluorescence microscope) (HL-60 cells [2]; HL-60 cells cultured for 4 days with compound (FIG. 18B)): the breakage of the nucleus in the HL-60 cell was clearly observed
DNA fragmentation (electrophoresis of extracted DNA) (HL-60 cells [2]; HL-60 cells, 10 μg/mL or 20 μg/mL, 4 days (FIG. 18C lanes 3 and 4)): fragmentation of the DNA due to apoptosis was observed in the form of a “ladder.”
morphological alteration of the cells (neurite outgrowth) (NB-1 cells): neurites (nerve axon-like projections) appeared from NB-1 cells and that these neurites elongated from the cells
morphological alteration of the cells (neurite-like structures) (NB-1 cells; NB-1 cells 10^6 cells/mL, after 7 days (FIG. 16)): neurite-like structures elongated more significantly
concentration at which growth of the cells was significantly suppressed (HT1080 cells): ≥ 4.0 µg/mL
concentration at which growth of the HL-60 cells was obviously suppressed (HL-60 cells [3]): ≥ 2.0 µg/mL
concentration at which growth of the UF-1 cells was significantly suppressed (UF-1 cells): ≥ 8.0 µg/mL
concentration at which growth of the cells was significantly suppressed (HT29 cells): ≥ 2 µg/mL
morphological alteration of the cell (neurite outgrowth) (Neuro-2a cells): neurites (nerve axon-like projections) appeared from Neuro-2a cells and that these neurites elongated from the cells
length of the neurite (control defined as 100%) ([1]; 10 μg/mL, average of 38 test cells vs 45 control cells (FIG. 7)): approximately 150%
length of neurites elongated from the cell bodies (concentration dependence) ([1]; 3 days): the higher the concentration of the NAD analogue of the present invention in the fetal rat midbrain nerve cells, the longer a neurite
concentration whose addition allows neurites to elongate ([1]; fetal rat brain dopaminergic cells (FIG. 8)): 0.1 µg/mL
formation of varicosities on the projection ([1]; fetal rat midbrain nerve cells, 0 to 10 μg/mL, 3 days): forms a large number of knobby, what is called “varicosities” on the projection
